Source: ChEMBL document CHEMBL1201862, “PubChem BioAssay data set” (2004)
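Method: 48-hour compound exposure of cells in 96-well plates, five concentrations, linear interpolation of endpoints. GI50 marks 50% less growth.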 Active and inactive are the calls of the source. Cut-off read from the data, not from the text of the source: active = GI50 up to about 1.1 µM and inactive = higher.

Columns and labels:
Assay in all cases: DTP human tumour cell line panel, 48 h
M19-MEL = test system: M19-MEL
SF-268 = test system: SF-268
MOLT-4 = test system: MOLT-4
SNB-75 = test system: SNB-75
HCT-15 = test system: HCT-15
HOP-18 = test system: HOP-18
DMS-273 = test system: DMS-273
EKVX = test system: EKVX
786-0 = test system: 786-0
A498 = test system: A498
LOX IMVI = test system: LOX IMVI
SK-MEL-2 = test system: SK-MEL-2
UACC-62 = test system: UACC-62
M14 = test system: M14
HL-60 = test system: HL-60
OVCAR-4 = test system: OVCAR-4
SR = test system: SR
BT-549 = test system: BT-549
MCF7 = test system: MCF7
DU-145 = test system: DU-145

Row | Structure (SMILES) | GI50 (M19-MEL) | GI50 (SF-268) | GI50 (MOLT-4) | GI50 (SNB-75) | GI50 (HCT-15) [µM] | GI50 (HOP-18) | GI50 (DMS-273) | GI50 (EKVX) | GI50 (786-0) | GI50 (A498) | GI50 (LOX IMVI) | GI50 (SK-MEL-2) | GI50 (UACC-62) | GI50 (M14) | GI50 (HL-60) | GI50 (OVCAR-4) | GI50 (SR) | GI50 (BT-549) | GI50 (MCF7) | GI50 (DU-145)
1 | CC(=O)Nc1ccc(-c2nnc(SCC(=O)Nc3cccc(Cl)c3)o2)cc1 | 17.3 µM (inactive) | 13.7 µM (inactive) | 19.1 µM (inactive) | 20 µM (inactive) | 14.9 | 12.6 µM (inactive) | 17.9 µM (inactive) | 25.3 µM (inactive) | 6.49 µM (inactive) | 16.3 µM (inactive) | 10.3 µM (inactive) | 20 µM (inactive) | 15.4 µM (inactive) | 11.8 µM (inactive) | 18.2 µM (inactive) | 17.9 µM (inactive) | – | – | – | –
2 | COC(=O)CC1C(=O)OCc2c1cc1n(c2=O)Cc2c-1nc1ccccc1c2OC (stereo not drawn) | 69.7 µM (inactive) | 19.3 µM (inactive) | 3.93 µM (inactive) | 6.53 µM (inactive) | > 100 | 64.7 µM (inactive) | 12.7 µM (inactive) | > 100 µM (inactive) | 37.3 µM (inactive) | > 100 µM (inactive) | 22.5 µM (inactive) | > 100 µM (inactive) | 19.7 µM (inactive) | 18 µM (inactive) | 18.5 µM (inactive) | > 100 µM (inactive) | 6.05 µM (inactive) | – | – | –
3 | CC(=O)NNc1nc(C)c(C(=O)NNC(=O)C(=O)Nc2c(C)cccc2C)s1 | 32.7 µM (inactive) | 33.2 µM (inactive) | 22.6 µM (inactive) | 96.4 µM (inactive) | 32.3 | 29.2 µM (inactive) | 31.8 µM (inactive) | 37 µM (inactive) | 50.8 µM (inactive) | > 100 µM (inactive) | 18.3 µM (inactive) | 48.9 µM (inactive) | 33.3 µM (inactive) | 54.1 µM (inactive) | 25.9 µM (inactive) | 41.1 µM (inactive) | – | – | – | –
4 | O=C1[C@@H]2C3C=CC([C@H]4C(=O)N(CO)C(=O)[C@@H]34)[C@@H]2C(=O)N1CO | > 44.9 µM (inactive) | > 49.7 µM (inactive) | 34 µM (inactive) | > 78.2 µM (inactive) | 25.4 | 34 µM (inactive) | > 42.7 µM (inactive) | > 100 µM (inactive) | 41.8 µM (inactive) | > 100 µM (inactive) | 42.1 µM (inactive) | > 100 µM (inactive) | > 76.2 µM (inactive) | > 50.7 µM (inactive) | 24.9 µM (inactive) | > 75.5 µM (inactive) | – | – | – | –
5 | c1ccc2c(c1)N=C(c1cccc3ccccc13)CC(c1cccc3ccccc13)S2 (stereo not drawn) | 5.53 µM (inactive) | 4.42 µM (inactive) | 2.24 µM (inactive) | 5.83 µM (inactive) | 4.26 | 5.57 µM (inactive) | 4.46 µM (inactive) | 14 µM (inactive) | 3.8 µM (inactive) | 7.94 µM (inactive) | 3.48 µM (inactive) | 14.9 µM (inactive) | 5.21 µM (inactive) | 13.2 µM (inactive) | 0.467 µM (active) | 3.68 µM (inactive) | 2.07 µM (inactive) | – | – | –
6 | CCOC(=O)c1ccc(C)c(/N=N/N(C)C)c1 | > 100 µM (inactive) | 82.8 µM (inactive) | > 100 µM (inactive) | > 100 µM (inactive) | > 100 | 4.32 µM (inactive) | > 100 µM (inactive) | > 100 µM (inactive) | > 100 µM (inactive) | > 100 µM (inactive) | > 100 µM (inactive) | > 100 µM (inactive) | > 100 µM (inactive) | > 100 µM (inactive) | > 100 µM (inactive) | > 100 µM (inactive) | 93.1 µM (inactive) | – | – | –
7 | CCC(C)OC(=O)C1C2CCC(O2)C1C(=O)O (stereo not drawn) | > 60.7 µM (inactive) | > 51.2 µM (inactive) | > 87.1 µM (inactive) | > 100 µM (inactive) | > 41.1 | > 100 µM (inactive) | > 42.8 µM (inactive) | > 100 µM (inactive) | > 44.2 µM (inactive) | > 47.3 µM (inactive) | > 41.9 µM (inactive) | > 100 µM (inactive) | > 100 µM (inactive) | > 100 µM (inactive) | > 100 µM (inactive) | > 100 µM (inactive) | 19.2 µM (inactive) | – | – | –
8 | COC(=O)CC(=O)OC | > 100 µM (inactive) | > 100 µM (inactive) | > 100 µM (inactive) | > 100 µM (inactive) | > 100 | > 100 µM (inactive) | > 100 µM (inactive) | > 100 µM (inactive) | > 100 µM (inactive) | > 100 µM (inactive) | > 100 µM (inactive) | > 100 µM (inactive) | > 100 µM (inactive) | > 100 µM (inactive) | > 100 µM (inactive) | > 100 µM (inactive) | – | – | – | –
9 | O=C1NC2C3CC(OCc4ccccc4)(OCc4ccccc4)C2OC3O1 (stereo not drawn) | > 50 µM (inactive) | > 50 µM (inactive) | > 50 µM (inactive) | 48.6 µM (inactive) | > 50 | > 50 µM (inactive) | > 50 µM (inactive) | – | > 50 µM (inactive) | > 50 µM (inactive) | > 50 µM (inactive) | > 50 µM (inactive) | > 50 µM (inactive) | > 50 µM (inactive) | > 50 µM (inactive) | < 0.005 µM (active) | – | – | – | –
10 | Cc1c2c(cc[n+]1C)O[B-](c1ccccc1)(c1ccccc1)O2 | 49.1 µM (inactive) | > 100 µM (inactive) | 35.5 µM (inactive) | 22.3 µM (inactive) | 38.3 | 58.6 µM (inactive) | 36.5 µM (inactive) | 26.5 µM (inactive) | 71.9 µM (inactive) | 64 µM (inactive) | 51.2 µM (inactive) | 91.2 µM (inactive) | 16.3 µM (inactive) | 41.5 µM (inactive) | 35.1 µM (inactive) | 64.4 µM (inactive) | – | – | – | –
11 | CN(C(=O)C12C3C4C5C3C1(C(=O)C13C6C7C8C6C1C8C73)C5C42)C(C)(C)C (stereo not drawn) | > 50 µM (inactive) | > 50 µM (inactive) | 29.2 µM (inactive) | > 33 µM (inactive) | > 21.3 | > 50 µM (inactive) | > 21.4 µM (inactive) | > 50 µM (inactive) | > 50 µM (inactive) | > 50 µM (inactive) | > 21 µM (inactive) | > 50 µM (inactive) | > 50 µM (inactive) | > 50 µM (inactive) | > 19.3 µM (inactive) | > 50 µM (inactive) | > 50 µM (inactive) | – | – | –
12 | O=[N+]([O-])c1cc(C(F)(F)F)cc2n[se]nc12 | 3.33 µM (inactive) | 5 µM (inactive) | 1.48 µM (inactive) | 7.64 µM (inactive) | 2.28 | 3.14 µM (inactive) | 13.2 µM (inactive) | 5.3 µM (inactive) | 2.21 µM (inactive) | 16.8 µM (inactive) | 5.53 µM (inactive) | 8.38 µM (inactive) | 4.15 µM (inactive) | 1.71 µM (inactive) | 0.429 µM (active) | 1.97 µM (inactive) | 1.36 µM (inactive) | 2.81 µM (inactive) | 1.97 µM (inactive) | 3.21 µM (inactive)
13 | Cc1ccc(C2COc3cc(O)c(O)cc3C2)cc1 (stereo not drawn) | 19 µM (inactive) | 13.2 µM (inactive) | 4.48 µM (inactive) | 42 µM (inactive) | 15 | 43.5 µM (inactive) | 16.2 µM (inactive) | 20.4 µM (inactive) | – | 86.7 µM (inactive) | 12.1 µM (inactive) | 19.2 µM (inactive) | 18.5 µM (inactive) | – | 1.64 µM (inactive) | 20.4 µM (inactive) | – | – | 25.9 µM (inactive) | –
14 | CN(C)CC(C)(C)/C(=N\Nc1ccccc1)c1ccccc1 | 82.2 µM (inactive) | 31.8 µM (inactive) | 46.3 µM (inactive) | 37.1 µM (inactive) | 16.2 | 35 µM (inactive) | 33.5 µM (inactive) | 47.2 µM (inactive) | 45.3 µM (inactive) | 82.8 µM (inactive) | 14.6 µM (inactive) | 58.1 µM (inactive) | 14.8 µM (inactive) | 21.9 µM (inactive) | 21 µM (inactive) | 45.4 µM (inactive) | – | – | – | –
15 | O=C1[C@@H]2C(c3cccc([N+](=O)[O-])c3)=NO[C@@H]2C(=O)N1c1ccc(Cc2ccc(N3C(=O)[C@H]4C(c5cccc([N+](=O)[O-])c5)=NO[C@H]4C3=O)cc2)cc1 | > 100 µM (inactive) | > 10 µM (inactive) | > 100 µM (inactive) | > 100 µM (inactive) | > 100 | > 100 µM (inactive) | > 100 µM (inactive) | – | 91 µM (inactive) | – | > 10 µM (inactive) | > 100 µM (inactive) | > 100 µM (inactive) | > 100 µM (inactive) | – | > 100 µM (inactive) | > 100 µM (inactive) | – | – | –
16 | Clc1ccc(SCCCCCCCCCCSc2ccc(Cl)cc2)cc1 | > 100 µM (inactive) | > 100 µM (inactive) | > 100 µM (inactive) | > 100 µM (inactive) | > 54.2 | > 100 µM (inactive) | > 100 µM (inactive) | > 70 µM (inactive) | > 55.6 µM (inactive) | > 73.8 µM (inactive) | > 100 µM (inactive) | > 56.1 µM (inactive) | > 100 µM (inactive) | > 100 µM (inactive) | > 100 µM (inactive) | > 100 µM (inactive) | – | – | – | –
17 | CC1(C)C(=NNC(=O)C[N+](C)(C)C)C(C)(C)C1=NNC(=O)C[N+](C)(C)C | > 100 µM (inactive) | > 100 µM (inactive) | > 100 µM (inactive) | > 100 µM (inactive) | > 100 | > 100 µM (inactive) | 42.2 µM (inactive) | > 100 µM (inactive) | > 100 µM (inactive) | > 100 µM (inactive) | 72.9 µM (inactive) | > 100 µM (inactive) | > 100 µM (inactive) | > 100 µM (inactive) | > 100 µM (inactive) | > 100 µM (inactive) | > 100 µM (inactive) | – | – | –
